Paper PMC7114229 (Antiviral Research, 2019)
Like-named read-outs stand apart in the source and are kept apart here.

Experiments:
[1] = tested on: HIV-2 (ROD); assay: Anti-HIV-2 activity in MT-4 cell cultures
[2] = in vitro; settings: human
[3] = target: gp120 (Human immunodeficiency virus type 1 group M subtype B, UniProt P03375); assay: biochemical; type: binding, HIV
[4] = tested on: HIV-1 (NL4.3); assay: Anti-HIV-1 activity in MT-4 cell cultures
[5] = tested on: EV71 VP1_S184T_ P246S (RES); type: cell-based
[6] = tested on: EV71 BrCr laboratory-adapted strain; assay: Anti-EV71 assay, BrCr laboratory-adapted strain in RD cells; settings: Enterovirus A
[7] = in vitro; settings: human; remark: listed apart in the source
[8] = tested on: MT-4 cells; settings: read-out: CC50 (MT-4); MT-4 cultures; host cell viability

Work on CN[C@@H]1[C@H](O[C@@H]2OC[C@@H](O)[C@H](O)[C@H]2O)[C@@H](O)[C@H](O[C@H]2c3cc(C)c(C(=O)N[C@H](C)C(=O)O)c(O)c3-c3c(cc4c(c3O)C(=O)c3cc(OC)cc(O)c3C4=O)[C@@H]2O)O[C@@H]1C [PRM-A, pradimycin A] yielded an EC50 ([1]; Human immunodeficiency virus 2, MT4, read-out: HIV-2 EC50) of 5.9 ± 3.7 µM, a CC50 [2] greater than 100 µM and a Kd ([3]; KD (10^−6) (M), apparent KD, SPR, three replicates) of 6.92e-06 M. For the same compound, the Kd ([3]; apparent KD for binding to gp120, SPR) was 6.9e-06 M, the kon ([3]; read-out: Ka (10^3) (1/M.s)) was 2760 ± 1000 M⁻¹ s⁻¹ and the EC50 ([4]; Human immunodeficiency virus 1, MT4, read-out: HIV-1 EC50) was 3.3 ± 1.2 µM.
For CCOC(=O)/C=C/[C@H](C[C@@H]1CCNC1=O)NC(=O)[C@@H](CC(=O)[C@@H](NC(=O)c1cc(C)on1)C(C)C)Cc1ccc(F)cc1 [Rupintrivir, rupintrivir], the “antiviral activity against the mutant virus strain” value ([5]; EV-71 variant (RES)) was “retained full antiviral activity”, the EC50 ([5]; read-out: VP1_S184T_ P246S (RES) EC50) was 0.016 ± 0.006 µM and the EC50 ([6]; EV71|EVA71, RD, read-out: EV-A71 BrCr (WT) EC50) was 0.014 ± 0.004 µM.
In the case of CCOC(=O)c1ccc(OCCC2CCN(c3ccc(C)nn3)CC2)cc1 [Pirodavir, pirodavir], the CC50 [7] is reported as greater than 100 µM and the EC90 ([6]; EV71, RD, read-out: EV71 EC90) is reported as 0.6 ± 0.2 µM.
With dextran sulfate-5000 [DS-5000] the EC50 ([1]; read-out: HIV-2 EC50, MT-4 cultures, inhibition of virus-induced cytopathicity by 50%) was 0.03 ± 0.01 µM, the CC50 [8] was greater than 20 µM and the EC50 ([4]; read-out: HIV-1 EC50, MT-4 cultures, inhibition of virus-induced cytopathicity by 50%) was 0.07 ± 0.02 µM.
